Laboratory results published in patent US9415096B2 (priority 2007, dated 2016).
Ends that are not written are not given here.

Legend:
PK-8 cells = assay: Cytotoxicity test (chromium release assay) of peptide-induced killer T cells against PK-8; conditions: killer T cells from breast cancer patients induced with the peptide; PK-8 HLA-A2 negative, FOXM1 positive
panc-1 cells = assay: Cytotoxicity test (chromium release assay) of peptide-induced killer T cells against panc-1; conditions: for HLA-A2 restricted and FOXM1-specific cytotoxic activity of induced killer T cells: chromium release assay, panc-1 (HLA-A2 positive) versus PK-8 (HLA-A2 negative); for cytotoxic activity against panc-1 cells: killer T cells from breast cancer patients induced with the peptide, panc-1 HLA-A2 positive, FOXM1-expressing

Sequence	cytotoxic activity against PK-8 cells (PK-8 cells)	HLA-A2 restricted and FOXM1-specific cytotoxic activity of induced killer T cells (panc-1 cells)	cytotoxic activity against panc-1 cells (panc-1 cells)
GLMDLSTTPL [FOXM1 640-649, GLMDLSTTPL]	did not show cytotoxic activity	HLA-A2 restricted and FOXM1-specific cytotoxic activity was observed	strong cytotoxic activity
SLVLQPSVKV [FOXM1 373-382, SLVLQPSVKV]	did not show cytotoxic activity	HLA-A2 restricted and FOXM1-specific cytotoxic activity was observed	strong cytotoxic activity
YLVPIQFPV [FOXM1 362-370, YLVPIQFPV]	did not show cytotoxic activity	HLA-A2 restricted and FOXM1-specific cytotoxic activity was observed	strong cytotoxic activity
